Bridge positions count the residues as written; N and C are the ends. Ends that are not written are not given here. Peptide text beside a SMILES is read from it. Fluos = 5(6)-carboxyfluorescein
Columns and labels:
[1] = Proteolytic stability assay in human plasma; assay type: in vitro ADME; conditions: 37 °C; for half-life: human plasma (citrate-anticoagulated), human plasma (citrate 10 mM, pH 7.0), peptide 200–500 μg/mL, TCA stop, intact peptide by C18 RP-HPLC (214 nm) peak area, MALDI-MS verified, three independent incubations, read-out: t1/2 in human blood plasma (converted)
Description: Proteolytic stability assay: Proteolytic stability studies of peptides were performed following a previously described experimental protocol.[ ^20 , ^23 ] Briefly, peptides were incubated (200–500 μg/mL) in human plasma, isolated from the blood of healthy volunteers by routine methods using citrate (10 mM, pH 7.0) as an anti‐coagulant, at 37 °C for various time intervals. At the end of each interval, a stop solution (1 : 1) containing aqueous trichloroacetic acid (TCA, 10 %, v/v) was added and the samples kept on ice for 10 min. Samples were centrifuged at 20 000 g for 4 min, the supernatants retrieved and mixed 1 : 2 with a solution of 80 % HPLC buffer B (0.05 % (v/v) TFA in 90 % (v/v) CH3CN in water) and 20 % HPLC buffer A (0.058 % (v/v) TFA in water). Samples were analyzed by RP‐HPLC (detection at 214 nm) using a Nucleosil 100 C18 column (Grace; length 33 mm, i.d. 8 mm, 7 μm particle size). ^[24] The flow rate was 2 mL/min and the samples were analyzed with an elution program consisting of 2 steps; first step: 10 % HPLC buffer B in buffer A (1 min) and second step: a gradient from 10 to 90 % HPLC buffer B in buffer A (6 min). Peaks were collected, immediately frozen, lyophilized, and their molecular weights determined by MALDI‐MS. The HPLC peak areas were used to quantify remaining peptides in plasma.

[2] = CD concentration dependence study; assay type: physicochemical; conditions: between 5 and 100 μM
Description: Peptides: Linear MIF‐derived peptides were generated by standard Fmoc‐based solid phase peptide synthesis (SPPS) in their N‐terminally acetylated and C‐terminally amidated forms and purified by reversed‐phase (RP)‐HPLC as previously described. ^[18] 5(6)‐Carboxyfluorescein (Fluos) N‐terminally labeled peptides were synthesized as described. ^[19] Peptide purity was verified by matrix‐assisted laser desorption ionization mass spectrometry (MALDI‐MS). Cyclic peptide derivatives MIF(cyclo0), MIF(cyclo4), MIF(cyclo6), and MIF(cyclo10), containing terminal cysteines and different numbers of glycine and serine spacer residues to tailor ring size, were custom‐synthesized and purified (>96 % purity grade) by American Peptide Company (APC), Inc./Bachem (Bubendorf, Switzerland), or as described previously, ^[20] applying standard disulfide‐based oxidation procedures. […] The sequence of the scrambled control peptide of MIF(47–56) is […].
Circular dichroism spectroscopy: CD spectra were recorded on a Jasco J‐715 spectropolarimeter in a wavelength range between 190 and 250 nm. Spectra were measured at 0.1 nm intervals and a response time of 1 s. […] Each spectrum was measured three times, averaged and smoothed after background subtraction of the buffer. […]

[3] = target: T1, Alexa‐488‐labeled recombinant MIF (Alexa‐MIF) (Homo sapiens, UniProt P14174); assay: Fluorescence spectroscopic titration of Alexa-MIF with peptide; assay type: binding; conditions: Alexa-MIF 10 nM, peptide 0.1- to 1000-fold molar excess, 10 mM sodium phosphate pH 7.4, 1 % HFIP, RT, emission at 519 nm, three titrations
T1 construct: made in house
T1 sequence (P14174 1-115): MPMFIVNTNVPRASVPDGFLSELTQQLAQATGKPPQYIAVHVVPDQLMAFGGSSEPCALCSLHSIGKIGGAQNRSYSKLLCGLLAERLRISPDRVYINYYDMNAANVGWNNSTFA
Description: Fluorescence spectroscopy: Fluorescence spectroscopic titrations were performed on a Jasco FP‐6500 spectrofluorometer. Alexa Fluor‐488‐labelled rMIF (Alexa‐MIF) was reconstituted in 20 mM sodium phosphate buffer (pH 7.2). […] The excitation wavelength was set at 492 nm and fluorescence emission spectra were recorded between 500 and 600 nm within 2–3 min after the preparation of the mixtures at room temperature (RT).

[4] = target: T2, CXCR2 (Homo sapiens, UniProt P25025); assay: Label-free dynamic mass redistribution (DMR), HEK293-CXCR2 transfectants; assay type: cell-based; conditions: peptide 500 μM (MIF(47–56) also 100–500 μM), 30 s intervals
T2 construct: expressed in transfected cells
T2 sequence (P25025 1-360): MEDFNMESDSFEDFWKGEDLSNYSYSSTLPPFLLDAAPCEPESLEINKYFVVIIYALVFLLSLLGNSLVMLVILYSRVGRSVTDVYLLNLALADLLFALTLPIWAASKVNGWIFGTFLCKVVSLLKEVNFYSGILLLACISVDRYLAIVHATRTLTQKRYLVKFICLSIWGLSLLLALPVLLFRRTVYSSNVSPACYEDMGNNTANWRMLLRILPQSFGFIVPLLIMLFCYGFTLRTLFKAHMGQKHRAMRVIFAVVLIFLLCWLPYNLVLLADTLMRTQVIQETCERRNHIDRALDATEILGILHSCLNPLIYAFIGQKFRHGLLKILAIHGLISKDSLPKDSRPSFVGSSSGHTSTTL
Description: Label‐free dynamic mass redistribution: Dynamic mass redistribution (DMR) analysis ^[22] was performed according to Perkin Elmer's instructions for label‐free DMR measurements. Briefly, cells were seeded at a density of 40 000 cells per well of an EnSpire label‐free 96‐well fibronectin‐coated cell assay microplate (PerkinElmer). Post‐seeding, the cells were equilibrated at RT for 30 min and cultivated overnight in serum‐containing DMEM/F‐12 medium. The next day, the cells were washed four times with assay buffer containing 20 mM HEPES and 1 % DMSO in HBSS (pH 7.4), using an aspiration wand leaving a residual volume of 35 μL. The plate was equilibrated at RT for 2 h. […] Before adding the peptides, baseline measurements were performed for 10 min (30 s intervals) using the EnSpire Label‐free Multimode Plate Reader (PerkinElmer). Then, 20 μL of the respective peptides were added to the cells at a final concentration of 500 μM followed by real‐time measurements over a time period of 40 min (30 s intervals). The signal output represents a cumulative response overlay of all cells.

[5] = tested on: Primary human monocytes (MIF/CXCR2 axis); assay: Transwell migration assay, MIF-induced monocyte chemotaxis; assay type: cell-based; conditions: peptide 5 μM, human MIF 8 nM, Transwell 5 μm pores, 3 h, 37 °C, n=3–11
Description: Transwell migration assay: The inhibitory potential of the MIF‐derived peptide analogues was measured by Transwell chemotaxis assay using CD14^+ monocytes isolated from PBMCs or the entire PBMC fraction, as previously described. ^[7a] Briefly, PBMCs from buffy coats or CD14+ monocytes isolated from PBMCs were diluted in RPMI1640 supplemented with 0.5 % bovine serum albumin (BSA) at a density of […] cells/mL. Cells were placed into the upper chamber of a 24‐well cell culture inserts with 5 μm pore size (Corning). 8 nM full‐length MIF served as chemoattractant and was pre‐incubated with or without 5 μM of the respective peptides and applied to the lower chamber. After a 3 h migration interval at 37 °C (5 % CO2), cells were collected and counted via a CASY Cell Counter (OLS, OMNI Life Science, Bremen, Germany).

[6] = target: T2, CXCR2; assay: Receptor binding assay, flow cytometry, HEK293-CXCR2 vs HEK293-WT; conditions: 3.7 or 7.4 μM, on ice 2 h, HEK293-CXCR2 compared to non-transfected HEK293, flow cytometry, n=4–7

Compound: CSCC[C@@H]1NC(=O)[C@H](CC(C)C)NC(=O)CNC(=O)CNC(=O)[C@H](CO)NC(=O)CNC(=O)CNC(=O)[C@@H](N)CSSC[C@@H](C(=O)O)NC(=O)CNC(=O)CNC(=O)[C@H](CO)NC(=O)CNC(=O)CNC(=O)[C@@H]2CCCN2C(=O)[C@H](CCC(=O)O)NC(=O)[C@H](CO)NC(=O)[C@H](CO)NC(=O)CNC(=O)CNC(=O)[C@H](Cc2ccccc2)NC(=O)[C@H](C)NC1=O [MIF(cyclo10)] (H-CGGSGGLMAFGGSSEPGGSGGC-OH; disulfide 1-22)
- half-life [1]: > 480 min
- Time up to which appreciable amounts of intact peptide were detectable ([1]; human plasma, C18 HPLC and MALDI-MS): up to 48 h
- Resistance to proteolysis relative to MIF(47–56) ([1]; human plasma, ratio of t1/2): more than 16 fold
- Concentration dependence of CD spectra (solubility/aggregation check) [2]: no concentration dependence of the CD spectra

Compound: Ac-LMAFGGSSEP-NH2 [MIF(47–56)]
- Direct binding to MIF [3]: does not directly bind to MIF
- CXCR2-binding response (change of resonant wavelength Δpm) [4]: found to bind to HEK293‐CXCR2 transfectants
- Inhibition of MIF-induced monocyte chemotaxis [5]: significantly inhibited
- half-life [1]: ~30 min
- Concentration dependence of CD spectra (solubility/aggregation check) [2]: no concentration dependence of the CD spectra

Compound: Ac-SFESGPAGML-NH2 [scrambled control sequence, reference compound]
- CXCR2-binding response (change of resonant wavelength Δpm) [4]: fully abrogated

Compound: Fluos‐MIF(47–56): fluorescently labeled MIF(47–56), 5(6)‐carboxyfluorescein at the N-terminus (Fluos-MAFGGSSEPC; UniProt P14174 48-57, looked up, fragment)
- Binding to cell surface-expressed CXCR2 (MFI) [6]: specifically bound to full‐length CXCR2
